# Experimental data published in patent publication US11573233B2, “Systems and methods for label-free detection of analytes” (UNIVERSITY OF UTAH RESEARCH FOUNDATION, priority 2015, dated 2023).
# Experiment: second harmonic imaging (SHI) of tetracaine binding to lipid bilayer array
# Description: SH is a powerful tool for investigating small-molecule and protein interactions with membranes in a label-free manner. However, a high-throughput analog would be even more advantageous, akin to fluorescence imaging. Towards that end, SHI was implemented to measure the interactions between the local anesthetic tetracaine and a […] lipid bilayer array (MLBA) in a label-free manner allowing the effects of lipid phase and CHO content on tetracaine binding to be examined simultaneously.
smiles,measurement,setting,value
CCCCNc1ccc(C(=O)OCCN(C)C)cc1 [tetracaine],maximum surface excess,effect of phospholipid unsaturation and cholesterol content,increases with the degree of unsaturation of the phospholipids and decreases with cholesterol in the lipid bilayers
same,binding affinity to lipid phases,"l.c. phase vs solid-gel phase lipids, label-free SHI",higher binding affinity to l.c. phase lipids than to solid-gel phase lipids
